From patent publication US10202377B2, “3-(1H-benzo[D]imidazol-2-yl)-1H-pyrazolo[3,4-C]pyridine and therapeutic uses thereof” (Samumed, LLC, priority 2014, dated 2019) come the findings set out here.

The test system of assay [1] is primary human fibroblasts derived from IPF patients (LL29 cells). The assay can be described thus: Inhibition of fibrosis (αSMA staining) in TGF-β1-treated primary human fibroblasts from IPF patients. It is filed as cell-based. The conditions noted are these: Fibroblast, 96 h, TGF-β1 20 ng/mL, 4 days. A digest of the protocol: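 LL29 IPF fibroblasts in F12 with 1% FBS were stimulated with TGF-β1 (20 ng/mL) and incubated 4 days at 37 °C. SYTOX-positive dead cells were excluded, and αSMA-positive cells were counted by immunostaining as % of total. Values were normalized to TGF-β1/DMSO wells on the same plate, and EC50 derived.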

In assay [2] the test system is Wnt activity (Sp5-Luc reporter, SW480 colon carcinoma cells). The assay can be described thus: Sp5-Luc Wnt reporter gene screening assay in SW480 colon carcinoma cells. The settings on record: Homo sapiens.

In turn, `Oc1cncc(-c2cc3c(-c4nc5c(-c6cccc(F)c6)cccc5[nH]4)n[nH]c3cn2)c1` [Compound 949, 5-(3-(4-(3-Fluorophenyl)-1H-benzo[d]imidazol-2-yl)-1H-pyrazolo[3,4-c]pyridin-5-yl)pyridin-3-ol] had a half-maximal effective concentration (EC50) in assay [1] of 9990 nM. In addition, in assay [2], the IC50 came out at 29 nM.

Regarding `CCCCC(=O)Nc1cncc(-c2cc3c(-c4nc5c(-c6ccccn6)cccc5[nH]4)n[nH]c3cn2)c1` [Compound 148, N-(5-(3-(4-(Pyridin-2-yl)-1H-benzo[d]imidazol-2-yl)-1H-pyrazolo[3,4-c]pyridin-5-yl)pyridin-3-yl)pentanamide], in assay [1], the 50% effective concentration (EC50) was 225 nM. The compound further returned an IC50 in assay [2] of 177 nM.

For `c1ccc(-c2cccc3[nH]c(-c4n[nH]c5cnc(-c6cncc(CNCC7CCCC7)c6)cc45)nc23)nc1` [Compound 154, 1-Cyclopentyl-N-((5-(3-(4-(pyridin-2-yl)-1H-benzo[d]imidazol-2-yl)-1H-pyrazolo[3,4-c]pyridin-5-yl)pyridin-3-yl)methyl)methanamine], in assay [1], the EC50 came to 9 nM. This compound registered an IC50 in assay [2] of 596 nM.

`O=C(Nc1cncc(-c2cc3c(-c4nc5c(-c6ccncc6)cccc5[nH]4)n[nH]c3cn2)c1)C1CCCCC1` [Compound 126, N-(5-(3-(4-(Pyridin-4-yl)-1H-benzo[d]imidazol-2-yl)-1H-pyrazolo[3,4-c]pyridin-5-yl)pyridin-3-yl)cyclohexanecarboxamide] returned a concentration for a half-maximal effect (EC50) in assay [1] of 9990 nM. The half-maximal inhibitory concentration (IC50) in assay [2] was more than 10000 nM.

`c1ccc(CNCc2cncc(-c3cc4c(-c5nc6c(-c7cccnc7)cccc6[nH]5)n[nH]c4cn3)c2)cc1` [Compound 101, N-Benzyl-1-(5-(3-(4-(pyridin-3-yl)-1H-benzo[d]imidazol-2-yl)-1H-pyrazolo[3,4-c]pyridin-5-yl)pyridin-3-yl)methanamine] had an EC50 in assay [1] of 9 nM. The half-inhibitory concentration (IC50) in assay [2] was 183 nM.

Compound `CC(C)(C)C(=O)Nc1cncc(-c2cc3c(-c4nc5c(-c6ccsc6)cccc5[nH]4)n[nH]c3cn2)c1` [Compound 268, N-(5-(3-(4-(Thiophen-3-yl)-1H-benzo[d]imidazol-2-yl)-1H-pyrazolo[3,4-c]pyridin-5-yl)pyridin-3-yl)pivalamide] gave a half-maximal effective concentration (EC50) in assay [1] of 9 nM. For the same compound, 76.1 nM corresponded to half-maximal inhibition in assay [2] (IC50).

The compound `CN1CCN(c2cccc3[nH]c(-c4n[nH]c5cnc(-c6cncnc6)cc45)nc23)CC1` [Compound 234, 3-(4-(4-Methylpiperazin-1-yl)-1H-benzo[d]imidazol-2-yl)-5-(pyrimidin-5-yl)-1H-pyrazolo[3,4-c]pyridine] yielded a 50% effective concentration (EC50) in assay [1] of 9 nM. In assay [2], this compound had a 50% inhibitory concentration (IC50) of 798 nM.

As to `Cc1ccc(-c2cccc3[nH]c(-c4n[nH]c5cnc(-c6cncc(NC(=O)C(C)C)c6)cc45)nc23)s1` [Compound 373, N-(5-(3-(4-(5-Methylthiophen-2-yl)-1H-benzo[d]imidazol-2-yl)-1H-pyrazolo[3,4-c]pyridin-5-yl)pyridin-3-yl)isobutyramide], in assay [1], the EC50 was 14 nM. In addition, the half-maximal inhibitory concentration (IC50) in assay [2] is 32.6 nM.

In the case of `CC(C)CC(=O)Nc1cncc(-c2cc3c(-c4nc5c(-c6cc(O)cc(F)c6)cccc5[nH]4)n[nH]c3cn2)c1` [Compound 1350, N-(5-(3-(4-(3-Fluoro-5-hydroxyphenyl)-1H-benzo[d]imidazol-2-yl)-1H-pyrazolo[3,4-c]pyridin-5-yl)pyridin-3-yl)-3-methylbutanamide], the half-maximal effective concentration (EC50) in assay [1] amounted to 9 nM. Also, the concentration for half-maximal inhibition (IC50) in assay [2] is more than 10000 nM.

In turn, `c1cncc(-c2cccc3[nH]c(-c4n[nH]c5cnc(-c6cncc(CN7CCCCC7)c6)cc45)nc23)c1` [Compound 93, 5-(5-(Piperidin-1-ylmethyl)pyridin-3-yl)-3-(4-(pyridin-3-yl)-1H-benzo[d]imidazol-2-yl)-1H-pyrazolo[3,4-c]pyridine] came in with a concentration for a half-maximal effect (EC50) in assay [1] of 9 nM. The compound further yielded an IC50 in assay [2] of 534 nM.

Compound `CCCC(=O)Nc1cncc(-c2cc3c(-c4nc5c(-c6ccsc6)cccc5[nH]4)n[nH]c3cn2)c1` [Compound 277, N-(5-(3-(4-(Thiophen-3-yl)-1H-benzo[d]imidazol-2-yl)-1H-pyrazolo[3,4-c]pyridin-5-yl)pyridin-3-yl)butyramide] returned an EC50 in assay [1] of 9 nM. In assay [2], this compound returned an IC50 of 43.5 nM.
